Assay results published in the NIST ThermoML archive (doi:10.1021/acs.jced.7b00316).
Numbers after ± are expanded uncertainties.

Columns and labels:
[1] = Molar enthalpy of transition or fusion; details: Crystal; DSC
[2] = Crystal; DTA

## On1nnc2ccccc21 [1-benzotriazolol]
[1]
  Molar enthalpy of transition or fusion: 4.79 ± 0.217 kcal/mol
[2]
  Normal melting temperature: 151.11 ± 1.1 °C
